Source: ChEMBL document CHEMBL1781953, “Synthesis and antimycobacterial activity of 5-formylaminopyrimidines; analogs of antibacterial purines” (Bioorg Med Chem Lett, 2009)
Values after ≈ are worked out from the molar mass of the structure shown.

Legend:
Escherichia coli = experiment: Antibacterial activity against Escherichia coli; assay type: functional
Staphylococcus aureus = experiment: Antibacterial activity against Staphylococcus aureus; assay type: functional
[1] = Cytotoxicity against african green monkey Vero cells assessed as cell viability at 40 ug/mL after 72 hrs by MTT assay; assay type: cell-based; conditions: chlorocebus sabaeus, read-out: Activity
Vero = experiment: Cytotoxicity against african green monkey Vero cells after 72 hrs by MTT assay; assay type: cell-based; conditions: Chlorocebus sabaeus
[2] = system: Mycobacterium tuberculosis; experiment: Antimycobacterial activity against Mycobacterium tuberculosis H37Rv ATCC 27294 by microplate alamar blue assay; assay type: functional, organism-based

COc1ccc(CNc2nc(Cl)nc(-c3ccco3)c2NC=O)cc1 showed an MIC (Escherichia coli) greater than 64 µg/mL and an MIC (Staphylococcus aureus) greater than 64 µg/mL.
Work on GENTAMICIN yielded an MIC (Staphylococcus aureus) of 0.1 µg/mL.
In the case of COc1ccc(CNc2ncnc(-c3ccco3)c2NC=O)cc1, the MIC (Escherichia coli) is reported as greater than 64 µg/mL and the MIC (Staphylococcus aureus) is reported as greater than 64 µg/mL.
COc1ccc(CNc2nc(F)nc(-c3ccco3)c2NC=O)cc1 gave an MIC (Escherichia coli) greater than 64 µg/mL and an MIC (Staphylococcus aureus) greater than 64 µg/mL.
COc1ccc(CNc2nc([N+](=O)[O-])nc(-c3ccco3)c2NC=O)cc1 gave an MIC (Escherichia coli) greater than 64 µg/mL, an MIC (Staphylococcus aureus) greater than 64 µg/mL and a viability at 72 h, 40 ug/mL [1] of 62%. It also gave an EC50 (Vero) greater than 40 µg/mL.
With COc1ccc(CNc2nc(C(F)(F)F)nc(-c3ccco3)c2NC=O)cc1 the IC50 [2] was 0.26 µg/mL (≈ 0.663 µM) and the IC90 [2] was 0.58 µg/mL (≈ 1.48 µM).
